Reference: US12435084B2, “Indazole derivatives as inhibitors of SARM1” (Disarm Therapeutics, Inc., priority 2020, dated 2025)
pIC50: −log10 of the molar value.

These compounds were tested against T1, SARM1 (Homo sapiens, UniProt Q6SZW1) (assay: ARM-SAM-TIR SARM1 IC50 assay (NADase activity, NAD+ cleavage, RapidFire mass spectrometry)). Conditions: ARM-SAM-TIR lysate 5 μg/mL, 2 h pre-incubation with compound at room temperature, 5 μM NAD+, 2 hr incubation.
T1 construct: made in house; host or cells: NRK1-HEK293T cells, transient transfection; cleared cell lysate used without purification
T1 sequence (Q6SZW1 with tags, fused parts or gaps): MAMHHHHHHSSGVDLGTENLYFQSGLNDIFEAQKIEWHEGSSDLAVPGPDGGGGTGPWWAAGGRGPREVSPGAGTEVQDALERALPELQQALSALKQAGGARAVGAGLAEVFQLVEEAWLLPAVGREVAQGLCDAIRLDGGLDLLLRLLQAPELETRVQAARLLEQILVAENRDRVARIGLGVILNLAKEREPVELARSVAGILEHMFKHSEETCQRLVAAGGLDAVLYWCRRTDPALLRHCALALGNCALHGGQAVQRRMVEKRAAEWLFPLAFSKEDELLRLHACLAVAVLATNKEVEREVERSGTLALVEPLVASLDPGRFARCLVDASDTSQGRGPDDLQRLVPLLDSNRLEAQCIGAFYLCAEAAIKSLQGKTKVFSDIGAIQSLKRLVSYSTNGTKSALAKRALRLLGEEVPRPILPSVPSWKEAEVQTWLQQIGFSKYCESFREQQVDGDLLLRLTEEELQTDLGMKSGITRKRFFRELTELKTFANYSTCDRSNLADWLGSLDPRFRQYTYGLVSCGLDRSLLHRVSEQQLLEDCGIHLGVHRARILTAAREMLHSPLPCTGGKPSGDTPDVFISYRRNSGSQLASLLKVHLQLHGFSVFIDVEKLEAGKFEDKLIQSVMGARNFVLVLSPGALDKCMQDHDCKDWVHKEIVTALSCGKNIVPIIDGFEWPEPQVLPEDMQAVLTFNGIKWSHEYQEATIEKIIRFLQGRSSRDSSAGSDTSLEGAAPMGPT
Assay type: biochemical
Method: This Example describes an assay of ARM-SAM-TIR NADase activity and use of this assay to measure the efficacy of compounds of Formula I/II to block SARM1 mediated NAD+ cleavage. This assay was optimized in such a way as to characterize the efficacy of the compounds in Formula I/I to inhibit SARM1 activity and to calculate an IC50 value for each compound. This assay makes use of full length SARM1, which encompasses the ARM, SAM and TIR domains. […] NRK1-HEK293T cells were seeded onto 150 cm^2 plates at 20×10^6 cells per plate. The next day, the cells were transfected with […] ARM-SAM-TIR expression plasmid, SEQ ID NO: 1. The cultures were supplemented with 1 mM NR at time of transfection to minimize toxicity from ARM-SAM-TIR overexpression. Forty-eight hours after transfection, cells were harvested, pelleted by centrifugation at 1,000 rpm (Sorvall ST 16R centrifuge, Thermo Fisher), and washed once with cold PBS (0.01 M phosphate buffered saline NaCl 0.138 M; KCl 0.0027 M; pH 7.4). The cells were resuspended in PBS with protease inhibitors (cOmplete™ protease inhibitor cocktail, Roche product #11873580001) and cell lysates were prepared by sonication (Branson Sonifer 450, output=3, 20 episodes of stroke). The lysates were centrifuged (12,000×g for 10 min at 4° C.) to remove cell debris and the supernatants (containing ARM-SAM-TIR protein) were stored at −80° C. for later use in the in vitro ARM-SAM-TIR NADase assay (see below). Protein concentration was determined by the Bicinchoninic (BCA) method and used to normalize lysate concentrations. The enzymatic assay was performed in a 384-well polypropylene plate in Dulbecco's PBS buffer in a final assay volume of 20 μL. […] The reaction was initiated by addition of 5 μM final assay concentration of NAD+ as substrate. After a 2 hr room temperature incubation, the reaction was terminated with 40 μL of stop solution of 7.5% trichloroactetic acid in acetonitrile. The NAD+ and ADPR concentrations were analyzed by a RapidFire High Throughput Mass Spectrometry System (Agilent Technologies, Santa Clara, CA) using an API4000 triple quadrupole mass spectrometer (AB Sciex Framingham, MA).

Compound	pIC50
Cn1cncc1-c1n[nH]c2c(C(=O)NCc3ccc(Cl)cc3)cccc12 [Example 20]	< 5.00
O=C(NCc1ccc(Cl)cc1)c1cccc2c(-c3cnco3)n[nH]c12 [Example 21]	< 5.00
C[C@@H](NC(=O)c1cccc2c(-c3ccncc3)n[nH]c12)c1ccc(Cl)cc1 [Example 15]	6.00 to 7.00
Cc1ccc(C(=O)NCc2ccc(Cl)nc2)c2[nH]nc(-c3ccncc3)c12 [Example 24]	5.30 to 6.00
O=C(NCc1ccc(Cl)cc1)c1cccc2c(-c3cncs3)n[nH]c12 [Example 19]	< 5.00
O=C(NCc1ccc(Cl)c(F)c1)c1cccc2c(-c3ccncc3)n[nH]c12 [Example 16]	> 7.00
O=C(NCc1ccc(Cl)s1)c1cccc2c(-c3ccncc3)n[nH]c12 [Example 17]	> 7.00
O=C(NCc1ccc(Cl)cc1)c1nccc2c(-c3ccncc3)n[nH]c12 [Example 14]	> 7.00
Cc1cc(C(=O)NCc2ccc(Cl)nc2)c2[nH]nc(-c3ccncc3)c2c1 [Example 25]	6.00 to 7.00
O=C(NCc1ccc(Cl)cc1)c1cccc2c(-c3cnc[nH]3)n[nH]c12 [Example 18]	< 5.00
